Data reported in PubChem BioAssay (NCI).
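Compound exposure: 48 hours, 5 concentrations, 96-well plates. TGI denotes the concentration required for complete inhibition of growth.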

Test system: OVCAR-4 ovarian
Assay: NCI-60 cell line screen, 48 h

SMILES | TGI
NC(=S)N/N=C/c1c[nH]c2ccccc12 | > 100 µM
COc1ccc(/C=C/c2nsc(/C=C/c3ccc(OC)cc3)n2)cc1 | > 100 µM
O=C1CSC(c2ccccc2O)N1c1ccc(-c2ccc(-n3c(-c4ccccc4)nc4ccccc4c3=O)cc2)cc1 (centres undefined) | > 100 µM
COc1ccc2c3c1O[C@H]1[C@@H](O)CC[C@@]4(O)[C@@H](C2)N(C)CC[C@]314 | > 100 µM
C(=N\c1nc2cc3sc(/N=C/c4cccs4)nc3cc2s1)/c1cccs1 | > 100 µM

Test system: MDA-MB-435
Assay: NCI-60 cell line screen, 48 h

SMILES | TGI
NC(=S)N/N=C/c1c[nH]c2ccccc12 | > 100 µM
COc1ccc(/C=C/c2nsc(/C=C/c3ccc(OC)cc3)n2)cc1 | > 100 µM
O=C1CSC(c2ccccc2O)N1c1ccc(-c2ccc(-n3c(-c4ccccc4)nc4ccccc4c3=O)cc2)cc1 (centres undefined) | > 100 µM
COc1ccc2c3c1O[C@H]1[C@@H](O)CC[C@@]4(O)[C@@H](C2)N(C)CC[C@]314 | > 100 µM
C(=N\c1nc2cc3sc(/N=C/c4cccs4)nc3cc2s1)/c1cccs1 | > 100 µM

Test system: UO-31 renal
Assay: NCI-60 cell line screen, 48 h

SMILES | TGI
NC(=S)N/N=C/c1c[nH]c2ccccc12 | > 100 µM
COc1ccc(/C=C/c2nsc(/C=C/c3ccc(OC)cc3)n2)cc1 | > 100 µM
O=C1CSC(c2ccccc2O)N1c1ccc(-c2ccc(-n3c(-c4ccccc4)nc4ccccc4c3=O)cc2)cc1 (centres undefined) | > 100 µM
COc1ccc2c3c1O[C@H]1[C@@H](O)CC[C@@]4(O)[C@@H](C2)N(C)CC[C@]314 | > 100 µM
C(=N\c1nc2cc3sc(/N=C/c4cccs4)nc3cc2s1)/c1cccs1 | > 100 µM

Test system: HCT-15 colon
Assay: NCI-60 cell line screen, 48 h

SMILES | TGI
NC(=S)N/N=C/c1c[nH]c2ccccc12 | > 100 µM
COc1ccc(/C=C/c2nsc(/C=C/c3ccc(OC)cc3)n2)cc1 | > 100 µM
O=C1CSC(c2ccccc2O)N1c1ccc(-c2ccc(-n3c(-c4ccccc4)nc4ccccc4c3=O)cc2)cc1 (centres undefined) | > 100 µM
COc1ccc2c3c1O[C@H]1[C@@H](O)CC[C@@]4(O)[C@@H](C2)N(C)CC[C@]314 | > 100 µM
C(=N\c1nc2cc3sc(/N=C/c4cccs4)nc3cc2s1)/c1cccs1 | > 100 µM

Test system: DU-145 prostate
Assay: NCI-60 cell line screen, 48 h

SMILES | TGI
NC(=S)N/N=C/c1c[nH]c2ccccc12 | > 100 µM
COc1ccc(/C=C/c2nsc(/C=C/c3ccc(OC)cc3)n2)cc1 | > 100 µM
O=C1CSC(c2ccccc2O)N1c1ccc(-c2ccc(-n3c(-c4ccccc4)nc4ccccc4c3=O)cc2)cc1 (centres undefined) | > 100 µM
COc1ccc2c3c1O[C@H]1[C@@H](O)CC[C@@]4(O)[C@@H](C2)N(C)CC[C@]314 | > 100 µM
C(=N\c1nc2cc3sc(/N=C/c4cccs4)nc3cc2s1)/c1cccs1 | > 100 µM

Test system: HS 578T breast
Assay: NCI-60 cell line screen, 48 h

SMILES | TGI
NC(=S)N/N=C/c1c[nH]c2ccccc12 | > 100 µM
COc1ccc(/C=C/c2nsc(/C=C/c3ccc(OC)cc3)n2)cc1 | > 100 µM
O=C1CSC(c2ccccc2O)N1c1ccc(-c2ccc(-n3c(-c4ccccc4)nc4ccccc4c3=O)cc2)cc1 (centres undefined) | > 100 µM
COc1ccc2c3c1O[C@H]1[C@@H](O)CC[C@@]4(O)[C@@H](C2)N(C)CC[C@]314 | > 100 µM
C(=N\c1nc2cc3sc(/N=C/c4cccs4)nc3cc2s1)/c1cccs1 | > 100 µM

Test system: SNB-19 CNS
Assay: NCI-60 cell line screen, 48 h

SMILES | TGI
NC(=S)N/N=C/c1c[nH]c2ccccc12 | > 100 µM
COc1ccc(/C=C/c2nsc(/C=C/c3ccc(OC)cc3)n2)cc1 | > 100 µM
O=C1CSC(c2ccccc2O)N1c1ccc(-c2ccc(-n3c(-c4ccccc4)nc4ccccc4c3=O)cc2)cc1 (centres undefined) | > 100 µM
COc1ccc2c3c1O[C@H]1[C@@H](O)CC[C@@]4(O)[C@@H](C2)N(C)CC[C@]314 | > 100 µM
C(=N\c1nc2cc3sc(/N=C/c4cccs4)nc3cc2s1)/c1cccs1 | > 100 µM

Test system: EKVX NSCLC
Assay: NCI-60 cell line screen, 48 h

SMILES | TGI
NC(=S)N/N=C/c1c[nH]c2ccccc12 | > 100 µM
COc1ccc(/C=C/c2nsc(/C=C/c3ccc(OC)cc3)n2)cc1 | > 100 µM
O=C1CSC(c2ccccc2O)N1c1ccc(-c2ccc(-n3c(-c4ccccc4)nc4ccccc4c3=O)cc2)cc1 (centres undefined) | > 100 µM
COc1ccc2c3c1O[C@H]1[C@@H](O)CC[C@@]4(O)[C@@H](C2)N(C)CC[C@]314 | > 100 µM
C(=N\c1nc2cc3sc(/N=C/c4cccs4)nc3cc2s1)/c1cccs1 | > 100 µM

Test system: SK-OV-3 ovarian
Assay: NCI-60 cell line screen, 48 h

SMILES | TGI
NC(=S)N/N=C/c1c[nH]c2ccccc12 | > 100 µM
COc1ccc(/C=C/c2nsc(/C=C/c3ccc(OC)cc3)n2)cc1 | > 100 µM
O=C1CSC(c2ccccc2O)N1c1ccc(-c2ccc(-n3c(-c4ccccc4)nc4ccccc4c3=O)cc2)cc1 (centres undefined) | > 100 µM
COc1ccc2c3c1O[C@H]1[C@@H](O)CC[C@@]4(O)[C@@H](C2)N(C)CC[C@]314 | > 100 µM
C(=N\c1nc2cc3sc(/N=C/c4cccs4)nc3cc2s1)/c1cccs1 | > 100 µM

Test system: SW-620 colon
Assay: NCI-60 cell line screen, 48 h

SMILES | TGI
NC(=S)N/N=C/c1c[nH]c2ccccc12 | > 100 µM
O=C1CSC(c2ccccc2O)N1c1ccc(-c2ccc(-n3c(-c4ccccc4)nc4ccccc4c3=O)cc2)cc1 (centres undefined) | > 100 µM
COc1ccc2c3c1O[C@H]1[C@@H](O)CC[C@@]4(O)[C@@H](C2)N(C)CC[C@]314 | > 100 µM

Test system: LOX IMVI melanoma
Assay: NCI-60 cell line screen, 48 h

SMILES | TGI
NC(=S)N/N=C/c1c[nH]c2ccccc12 | > 100 µM
COc1ccc(/C=C/c2nsc(/C=C/c3ccc(OC)cc3)n2)cc1 | > 100 µM
O=C1CSC(c2ccccc2O)N1c1ccc(-c2ccc(-n3c(-c4ccccc4)nc4ccccc4c3=O)cc2)cc1 (centres undefined) | 77.4 µM
COc1ccc2c3c1O[C@H]1[C@@H](O)CC[C@@]4(O)[C@@H](C2)N(C)CC[C@]314 | > 100 µM
C(=N\c1nc2cc3sc(/N=C/c4cccs4)nc3cc2s1)/c1cccs1 | > 100 µM

Test system: KM12 colon
Assay: NCI-60 cell line screen, 48 h

SMILES | TGI
NC(=S)N/N=C/c1c[nH]c2ccccc12 | > 100 µM
COc1ccc(/C=C/c2nsc(/C=C/c3ccc(OC)cc3)n2)cc1 | > 100 µM
O=C1CSC(c2ccccc2O)N1c1ccc(-c2ccc(-n3c(-c4ccccc4)nc4ccccc4c3=O)cc2)cc1 (centres undefined) | 52.3 µM
COc1ccc2c3c1O[C@H]1[C@@H](O)CC[C@@]4(O)[C@@H](C2)N(C)CC[C@]314 | > 100 µM
C(=N\c1nc2cc3sc(/N=C/c4cccs4)nc3cc2s1)/c1cccs1 | > 100 µM

Test system: BT-549 breast
Assay: NCI-60 cell line screen, 48 h

SMILES | TGI
NC(=S)N/N=C/c1c[nH]c2ccccc12 | > 100 µM
COc1ccc(/C=C/c2nsc(/C=C/c3ccc(OC)cc3)n2)cc1 | > 100 µM
O=C1CSC(c2ccccc2O)N1c1ccc(-c2ccc(-n3c(-c4ccccc4)nc4ccccc4c3=O)cc2)cc1 (centres undefined) | 55.7 µM
COc1ccc2c3c1O[C@H]1[C@@H](O)CC[C@@]4(O)[C@@H](C2)N(C)CC[C@]314 | > 100 µM
C(=N\c1nc2cc3sc(/N=C/c4cccs4)nc3cc2s1)/c1cccs1 | > 100 µM

Test system: OVCAR-8 ovarian
Assay: NCI-60 cell line screen, 48 h

SMILES | TGI
NC(=S)N/N=C/c1c[nH]c2ccccc12 | > 100 µM
COc1ccc(/C=C/c2nsc(/C=C/c3ccc(OC)cc3)n2)cc1 | > 100 µM
O=C1CSC(c2ccccc2O)N1c1ccc(-c2ccc(-n3c(-c4ccccc4)nc4ccccc4c3=O)cc2)cc1 (centres undefined) | > 100 µM
COc1ccc2c3c1O[C@H]1[C@@H](O)CC[C@@]4(O)[C@@H](C2)N(C)CC[C@]314 | > 100 µM
C(=N\c1nc2cc3sc(/N=C/c4cccs4)nc3cc2s1)/c1cccs1 | > 100 µM

Test system: SF-539 CNS
Assay: NCI-60 cell line screen, 48 h

SMILES | TGI
NC(=S)N/N=C/c1c[nH]c2ccccc12 | > 100 µM
